Source: ChEMBL document CHEMBL1128496, “Anti-AIDS (acquired immune deficiency syndrome) agents. 17. New brominated hexahydroxybiphenyl derivatives as potent anti-HIV agents” (J Med Chem, 1995)
Converted amounts (≈) assume the structure as drawn. “And” between values parts separate entries of the source, which are not always exact repeats. Equal entries are not always repeated.

Experiments:
[1] = Anti-HIV activity was evaluated by measuring the growth inhibition of acutely infected H9 lymphocytes as IC50.; assay type: functional; conditions: Human immunodeficiency virus 1
[2] = Anti-HIV activity evaluated by measuring the growth inhibition of acutely infected H9 lymphocytes as therapeutic index.; set-up: species or system Human immunodeficiency virus 1; conditions: for selectivity ratio: human immunodeficiency virus 1, H9 lymphocytes acutely infected with HIV-1, read-out: TI; for TI: Human immunodeficiency virus 1
[3] = Anti-HIV activity was evaluated by measuring the growth inhibition of acutely infected H9 lymphocytes as EC50.; assay type: functional; conditions: Human immunodeficiency virus 1
[4] = Effect against HIV-1 chronically infected promonocytic cell line U1 in the presence of PMA(phorbol 12-myristate 13-acetate); assay type: functional, Human immunodeficiency virus 1
[5] = Effect against HIV-1 expression in a chronically infected human T cell line ACH-2; assay type: functional, Human immunodeficiency virus 1
[6] = Effect against HIV-1 expression in a chronically infected human T cell line ACH-2 in the presence of PMA(phorbol 12-myristate 13-acetate); assay type: functional, Human immunodeficiency virus 1
[7] = Effect against HIV-1 expression in a chronically infected human T cell line ACH-2i n the presence of PMA(phorbol 12-myristate 13-acetate); assay type: functional, Human immunodeficiency virus 1
[8] = Effect against HIV-1 chronically infected promonocytic cell line U1; assay type: functional, Human immunodeficiency virus 1
[9] = system: ACH-2 cell line; test: Effect against HIV-1 chronically infected […] cell line ACH-2 cells in the presence of PMA(phorbol 12-myristate 13-acetate); assay type: functional, Homo sapiens
[10] = system: ACH-2 cell line; test: Effect against HIV-1 chronically infected […] cell line ACH-2 cells; assay type: functional, Homo sapiens
[11] = system: H9; test: Anti-HIV activity of compound was evaluated by measuring the growth inhibition of acutely infected H9 lymphocytes.; assay type: functional, cell-based; conditions: Homo sapiens
[12] = system: H9; test: Anti-HIV activity of compound was evaluated by measuring the growth inhibition of acutely infected H9 lymphocytes as IC50.; assay type: functional, Homo sapiens

In the case of COc1c(Br)c(C(=O)O)c(-c2c3c(c(OC)c(Br)c2C(=O)OCC[N+](C)(C)C)OCO3)c2c1OCO2.[Cl-], the IC50 [1] is reported as over 100 µg/mL, the selectivity ratio [2] is reported as 1 and the EC50 [3] is reported as over 100 µg/mL.

Work on Br.COc1c(Br)c(C(=O)O)c(-c2c3c(c(OC)c(Br)c2C(=O)NCCN2CCCC2)OCO3)c2c1OCO2 yielded an IC50 [1] of over 100 µg/mL, a selectivity ratio [2] of 1 and an EC50 [3] of over 100 µg/mL.

CCOC(=O)c1c(Br)c(OC)c2c(c1-c1c3c(c(OC)c(Br)c1C(=O)O)OCO3)OCO2 gave an IC50 [1] of over 100 µg/mL, a selectivity ratio [2] of over 1.7 and an EC50 [3] of 60 µg/mL (≈ 104 µM).

For COc1c(Br)c(C(=O)O)c(-c2c3c(c(OC)c(Br)c2C(=O)O)OCO3)c2c1OCO2, the IC50 [1] was over 100 µg/mL, the TI [2] was 1 and the EC50 [3] was over 100 µg/mL.

With COc1c(Br)c(C(=O)O)c(-c2c3c(c(OC)c(Br)c2C(=O)O)OCO3)c2c1OCO2.OCCN1CCCC1.OCCN1CCCC1 the IC50 [1] was over 20 µg/mL, the TI [2] was under 1.2 and the EC50 [3] was 17 µg/mL.

CCOC(=O)c1c(Br)c(OC)c2c(c1-c1c3c(c(OC)c(Br)c1C(=O)[O-])OCO3)OCO2.[Na+] gave an IC50 [1] of over 100 µg/mL.

With COC(=O)c1cc(OC)c2c(c1-c1c3c(c(OC)c(Br)c1C(=O)OC)OCO3)OCO2 the p24 [4] was 10746 pg/mL and 13376 pg/mL and 8774 pg/mL and 7616 pg/mL and 7200 pg/mL and 8314 pg/mL, the p24 [5] was 148 pg ml-1 [middle of 6 runs] and the p24 [6] was 23373 pg/mL. The p24 [7] was 46208 pg/mL and 28634 pg/mL and 24832 pg/mL and 26957 pg/mL and 27699 pg/mL.

With Cc1cn([C@H]2C[C@H](N=[N+]=[N-])[C@@H](CO)O2)c(=O)[nH]c1=O [ZIDOVUDINE] the p24 [8] was 22 pg/mL and 13 pg/mL and 12 pg/mL and 18 pg/mL, the p24 [4] was 9338 pg/mL and 9299 pg/mL and 8218 pg/mL and 8070 pg/mL and the p24 [9] was 19814 pg/mL and 30758 pg/mL and 31808 pg/mL and 31360 pg/mL. The p24 [10] was 167 pg ml-1 [middle of 4 runs].

With COC(=O)c1c(Br)c(OC)c2c(c1-c1c3c(c(OC)c(Br)c1C(=O)OC)OCO3)OCO2 the p24 [8] was 15 pg/mL and 16 pg/mL and 14 pg/mL and 13 pg/mL and 17 pg/mL, the EC50 [11] was 0.23 µg/mL (≈ 0.399 µM) and the p24 [4] was 10131 pg/mL and 10598 pg/mL and 11482 pg/mL and 9850 pg/mL and 8320 pg/mL and 7590 pg/mL. The selectivity ratio [2] was over 480, the p24 [5] was 169 pg/mL and 141 pg/mL and 135 pg/mL and 142 pg/mL and 122 pg/mL and 123 pg/mL and the p24 [7] was 31590 pg/mL and 35635 pg/mL and 30426 pg/mL and 32768 pg/mL and 29173 pg/mL and 27699 pg/mL.

Compound COc1c(OC(=O)c2ccccc2)c(OC(=O)c2ccccc2)c(Br)c(CO)c1-c1c(CO)c(Br)c(OC(=O)c2ccccc2)c(OC(=O)c2ccccc2)c1OC has an IC50 [1] of over 100 µg/mL, a selectivity ratio [2] of 1 and an EC50 [3] of over 100 µg/mL.

For COc1c(Br)c(C(=O)[O-])c(-c2c3c(c(OC)c(Br)c2C(=O)[O-])OCO3)c2c1OCO2.[Na+].[Na+], the IC50 [1] was over 100 µg/mL, the selectivity ratio [2] was 1 and the EC50 [3] was over 100 µg/mL.

COc1c(OC(=O)c2ccccc2)c(OC(=O)c2ccccc2)cc(CO)c1-c1c(CO)c(Br)c(OC(=O)c2ccccc2)c(OC(=O)c2ccccc2)c1OC showed an IC50 [1] of over 100 µg/mL, a selectivity ratio [2] of over 1 and an EC50 [3] of 100 µg/mL (≈ 120 µM).

In the case of COC(=O)c1c(Br)c(OC(=O)c2ccccc2)c(OC(=O)c2ccccc2)c(OC)c1-c1c(OC)c(OC(=O)c2ccccc2)c(OC(=O)c2ccccc2)c(Br)c1C(=O)OC, the IC50 [1] is reported as over 100 µg/mL, the selectivity ratio [2] is reported as 1 and the EC50 [3] is reported as over 100 µg/mL.

In the case of CCCCCCOC(=O)c1c(Br)c(OC)c2c(c1-c1c3c(c(OC)c(Br)c1C(=O)OCCCCCC)OCO3)OCO2, the IC50 [1] is reported as over 100 µg/mL, the selectivity ratio [2] is reported as over 50 and the EC50 [3] is reported as 2 µg/mL (≈ 2.79 µM).

COC(=O)c1cc(OC)c2c(c1-c1c(C(=O)OC)cc(OC)c3c1OCO3)OCO2 [BIFENDATE] gave an IC50 [1] of over 100 µg/mL, a selectivity ratio [2] of over 20 and an EC50 [3] of 5 µg/mL (≈ 12 µM).

For COc1c2c(c3c(c1Br)c(=O)oc(=O)c1c(Br)c(OC)c4c(c13)OCO4)OCO2, the C50 [12] was over 100 µg/mL.

COc1c(Br)c(C(=O)O)c(-c2c3c(c(OC)c(Br)c2C(=O)NCCN2CCNCC2)OCO3)c2c1OCO2 showed an IC50 [1] of over 100 µg/mL, a selectivity ratio [2] of over 3.3 and an EC50 [3] of 30 µg/mL (≈ 45.5 µM).

COC(=O)c1cc(OC(=O)c2ccccc2)c(OC(=O)c2ccccc2)c(OC)c1-c1c(OC)c(OC(=O)c2ccccc2)c(OC(=O)c2ccccc2)c(Br)c1C(=O)OC gave an IC50 [1] of over 100 µg/mL, a selectivity ratio [2] of 1 and an EC50 [3] of over 100 µg/mL.
